Test system: A375 multi-cell spheroids with HUVEC/MSC, viability
Test: Anticancer human tumor A375 cell line growth inhibition [GQUAD];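 further: spheroids exposed to compounds for seven days before readout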
Conditions: for IC50: curve of first compound; for viability, T/C: stronger effect = lower value
How it was run: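 Tumor cells were grown as complex spheroids with HUVEC endothelial cells and mesenchymal stem cells as stroma. G-quadruplex stabilizers were combined with targeted agents over half-log dilutions from near the clinical Cmax, or from 10 microM.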

[1] = second compound 0.0316 µM, first compound 0.0316 µM
[2] = second compound 0.0316 µM, first compound 0.1 µM
[3] = second compound 0.0316 µM, first compound 0.316 µM
[4] = second compound 0.0316 µM, first compound 1 µM
[5] = second compound 0.0316 µM, first compound 3.16 µM
[6] = second compound 0.0316 µM, first compound 10 µM
[7] = second compound 0.1 µM, first compound 0.0316 µM
[8] = second compound 0.1 µM, first compound 0.1 µM
[9] = second compound 0.1 µM, first compound 0.316 µM
[10] = second compound 0.1 µM, first compound 1 µM
[11] = second compound 0.1 µM, first compound 3.16 µM
[12] = second compound 0.1 µM, first compound 10 µM
[13] = second compound 0.316 µM, first compound 0.0316 µM
[14] = second compound 0.316 µM, first compound 0.1 µM
[15] = second compound 0.316 µM, first compound 0.316 µM
[16] = second compound 0.316 µM, first compound 1 µM
[17] = second compound 0.316 µM, first compound 3.16 µM
[18] = second compound 0.316 µM, first compound 10 µM
[19] = second compound 1 µM, first compound 0.0316 µM
[20] = second compound 1 µM, first compound 0.1 µM
[21] = second compound 1 µM, first compound 0.316 µM
[22] = second compound 1 µM, first compound 1 µM
[23] = second compound 1 µM, first compound 3.16 µM
[24] = second compound 1 µM, first compound 10 µM
[25] = second compound 3.16 µM, first compound 0.0316 µM
[26] = second compound 3.16 µM, first compound 0.1 µM
[27] = second compound 3.16 µM, first compound 0.316 µM
[28] = second compound 3.16 µM, first compound 1 µM
[29] = second compound 3.16 µM, first compound 3.16 µM
[30] = second compound 3.16 µM, first compound 10 µM
[31] = second compound 10 µM, first compound 0.0316 µM
[32] = second compound 10 µM, first compound 0.1 µM
[33] = second compound 10 µM, first compound 0.316 µM
[34] = second compound 10 µM, first compound 1 µM
[35] = second compound 10 µM, first compound 3.16 µM
[36] = second compound 10 µM, first compound 10 µM

O=C(NO)c1cnc(N2CCN(S(=O)(=O)c3ccc4ccccc4c3)CC2)nc1 + Cc1[nH]c2ccc(F)cc2c1-c1nc2c3cccnc3c3ncccc3c2[nH]1
IC50 (second compound 0.0316 µM): 203 nM | IC50 (second compound 0.1 µM): 445 nM | IC50 (second compound 0.316 µM): 507 nM | IC50 (second compound 1 µM): 447 nM | IC50 (second compound 3.16 µM): 202 nM | IC50 (second compound 10 µM): 251 nM | viability, T/C [1]: 104% | viability, T/C [2]: 113% | viability, T/C [3]: 13.4% | viability, T/C [4]: 0.27% | viability, T/C [5]: 0.25% | viability, T/C [6]: 0.27% | viability, T/C [7]: 105% | viability, T/C [8]: 119% | viability, T/C [9]: 71% | viability, T/C [10]: 0.27% | viability, T/C [11]: 0.8% | viability, T/C [12]: 0.26% | viability, T/C [13]: 106% | viability, T/C [14]: 112% | viability, T/C [15]: 84.5% | viability, T/C [16]: 0.24% | viability, T/C [17]: 0.19% | viability, T/C [18]: 0.23% | viability, T/C [19]: 109% | viability, T/C [20]: 106% | viability, T/C [21]: 71.3% | viability, T/C [22]: 0.21% | viability, T/C [23]: 0.15% | viability, T/C [24]: 0.23% | viability, T/C [25]: 96.3% | viability, T/C [26]: 89.5% | viability, T/C [27]: 24.7% | viability, T/C [28]: 0.19% | viability, T/C [29]: 0.16% | viability, T/C [30]: 0.22% | viability, T/C [31]: 111% | viability, T/C [32]: 105% | viability, T/C [33]: 36.2% | viability, T/C [34]: 0.21% | viability, T/C [35]: 0.21% | viability, T/C [36]: 0.25%

CC(C)n1c(=O)n(C)c2cnc3cc(F)c(-c4ccc(OCCCN5CCCCC5)nc4)cc3c21 + Cc1cnc(CNC(=O)c2c(=O)c3ccc(N4CCCN(C)CC4)nc3n3c2sc2ccccc23)cn1
IC50 (second compound 0.0316 µM): > 10000 nM | IC50 (second compound 0.1 µM): > 10000 nM | IC50 (second compound 0.316 µM): 778 nM | IC50 (second compound 1 µM): 85.3 nM | IC50 (second compound 3.16 µM): < 31.6 nM | IC50 (second compound 10 µM): < 31.6 nM | viability, T/C [1]: 108% | viability, T/C [2]: 90.5% | viability, T/C [3]: 98.4% | viability, T/C [4]: 82.2% | viability, T/C [5]: 72.5% | viability, T/C [6]: 58.7% | viability, T/C [7]: 77.6% | viability, T/C [8]: 64.2% | viability, T/C [9]: 74.2% | viability, T/C [10]: 63.4% | viability, T/C [11]: 55.5% | viability, T/C [12]: 50.7% | viability, T/C [13]: 60.5% | viability, T/C [14]: 53.1% | viability, T/C [15]: 53% | viability, T/C [16]: 49.8% | viability, T/C [17]: 45.6% | viability, T/C [18]: 37.6% | viability, T/C [19]: 56% | viability, T/C [20]: 47.4% | viability, T/C [21]: 40.4% | viability, T/C [22]: 45.2% | viability, T/C [23]: 40.3% | viability, T/C [24]: 30.5% | viability, T/C [25]: 43.7% | viability, T/C [26]: 41.9% | viability, T/C [27]: 40% | viability, T/C [28]: 36.8% | viability, T/C [29]: 37.2% | viability, T/C [30]: 28.4% | viability, T/C [31]: 35.8% | viability, T/C [32]: 39% | viability, T/C [33]: 38.9% | viability, T/C [34]: 34.2% | viability, T/C [35]: 30.3% | viability, T/C [36]: 22.8%

CC1COCCN1c1cc(-c2ccnn2C)c2ccnc(-c3ccn[nH]3)c2n1 (stereo not drawn) + Cc1cnc(CNC(=O)c2c(=O)c3ccc(N4CCCN(C)CC4)nc3n3c2sc2ccccc23)cn1
IC50 (second compound 0.0316 µM): 279 nM | IC50 (second compound 0.1 µM): 74.3 nM | IC50 (second compound 0.316 µM): < 31.6 nM | IC50 (second compound 1 µM): < 31.6 nM | IC50 (second compound 3.16 µM): < 31.6 nM | IC50 (second compound 10 µM): < 31.6 nM | viability, T/C [1]: 102% | viability, T/C [2]: 69.3% | viability, T/C [3]: 51.9% | viability, T/C [4]: 28.3% | viability, T/C [5]: 13.8% | viability, T/C [6]: 13.9% | viability, T/C [7]: 67.5% | viability, T/C [8]: 37.5% | viability, T/C [9]: 35.9% | viability, T/C [10]: 23.3% | viability, T/C [11]: 13.7% | viability, T/C [12]: 9.98% | viability, T/C [13]: 39.5% | viability, T/C [14]: 33.8% | viability, T/C [15]: 27.6% | viability, T/C [16]: 21.7% | viability, T/C [17]: 13.9% | viability, T/C [18]: 10.4% | viability, T/C [19]: 38.2% | viability, T/C [20]: 35% | viability, T/C [21]: 29.6% | viability, T/C [22]: 21.5% | viability, T/C [23]: 12.7% | viability, T/C [24]: 11.3% | viability, T/C [25]: 30.8% | viability, T/C [26]: 30.2% | viability, T/C [27]: 30.7% | viability, T/C [28]: 22.4% | viability, T/C [29]: 13.2% | viability, T/C [30]: 10% | viability, T/C [31]: 26.7% | viability, T/C [32]: 27.9% | viability, T/C [33]: 24.1% | viability, T/C [34]: 16.9% | viability, T/C [35]: 13.3% | viability, T/C [36]: 9.71%

CC1COCCN1c1cc(C2(O)CC3CCC(C2)O3)c2cnn(-c3ccn[nH]3)c2n1 (stereo not drawn) + Cc1cnc(CNC(=O)c2c(=O)c3ccc(N4CCCN(C)CC4)nc3n3c2sc2ccccc23)cn1
IC50 (second compound 0.0316 µM): 127 nM | IC50 (second compound 0.1 µM): 57.5 nM | IC50 (second compound 0.316 µM): < 31.6 nM | IC50 (second compound 1 µM): < 31.6 nM | IC50 (second compound 3.16 µM): < 31.6 nM | IC50 (second compound 10 µM): < 31.6 nM | viability, T/C [1]: 86.1% | viability, T/C [2]: 51.7% | viability, T/C [3]: 38.3% | viability, T/C [4]: 15.7% | viability, T/C [5]: 10.2% | viability, T/C [6]: 7.77% | viability, T/C [7]: 57% | viability, T/C [8]: 42.5% | viability, T/C [9]: 31.2% | viability, T/C [10]: 15.2% | viability, T/C [11]: 11% | viability, T/C [12]: 7.11% | viability, T/C [13]: 38% | viability, T/C [14]: 29.7% | viability, T/C [15]: 28.9% | viability, T/C [16]: 19.1% | viability, T/C [17]: 10.3% | viability, T/C [18]: 7.26% | viability, T/C [19]: 40.9% | viability, T/C [20]: 32% | viability, T/C [21]: 27.3% | viability, T/C [22]: 14.4% | viability, T/C [23]: 10.5% | viability, T/C [24]: 7.81% | viability, T/C [25]: 31.9% | viability, T/C [26]: 27.4% | viability, T/C [27]: 23.4% | viability, T/C [28]: 14.3% | viability, T/C [29]: 10.1% | viability, T/C [30]: 5.41% | viability, T/C [31]: 24.7% | viability, T/C [32]: 22.5% | viability, T/C [33]: 21.8% | viability, T/C [34]: 13.7% | viability, T/C [35]: 9.6% | viability, T/C [36]: 4.53%

— PubChem BioAssay AID2060485 (Molecular Pharmacology Branch, DTP, NCI, 2025)
